This assay has as its system cultured human mast cells (CHMC). In words: CHMC low cell density ionomycin activation: tryptase assay. It counts as cell-based.
Consider `CNC(=O)COc1cccc(Nc2ncc(F)c(Nc3ccc(C)c(O)c3)n2)c1` [R926753, 5-Fluoro-N4-(3-hydroxy-4-methylphenyl)-N2-[3-[(N-methylamino)carbonylmethyleneoxy]phenyl]-2,4-pyrimidinediamine], for which the IC50 (usually the concentration at which inhibition is half-maximal) is > 10 µM. In the case of `CCOC(=O)CCn1ncc2cc(Nc3ncc(F)c(Nc4ccc(OC(F)(F)F)c(Cl)c4)n3)ccc21` [R935354, N4-(3-Chloro-4-trifluoromethoxy-phenyl)-N2-[1-(2-ethoxycarbonylethyl)indazoline-5-yl]-5-fluoro-2,4-pyrimidinediamine] it was > 10 µM; in that of `CNC(=O)C(C)(Oc1cccc(Nc2ncc(F)c(Nc3ccc(OC(C)C)cc3)n2)c1)C(=O)NC` [R935196, N2-[3-(1-Bis(N-methylaminocarbonyl)ethoxy)phenyl]-5-fluoro-N4-(4-isopropoxyphenyl)-2,4-pyrimidineamine], > 10 µM; in that of `CNC(=O)C(C)(C)Oc1cccc(Nc2ncc(F)c(Nc3cccc(O)c3)n2)c1` [R926913, 5-Fluoro-N4-(3-hydroxyphenyl)-N2-[3-[(N-methylamino)carbonyl-1,1-dimethylmethyleneoxy]phenyl]-2,4-pyrimidinediamine], > 10 µM.

In the case of `CCOc1ccc(Nc2nc(Nc3cccc(OCC(=O)NC)c3)ncc2F)cc1S(=O)(=O)O` [R950389, N4-(4-Ethoxy-3-hydroxysulfonylphenyl)-5-fluoro-N2-[3-(N-methylamino)carbonylmethyleneoxyphenyl]-2,4-pyrimidinediamine], the IC50 was > 10 µM. The figure for `CNC(=O)C1Cc2cc(Nc3ncc(F)c(Nc4cccc(OC(F)(F)F)c4)n3)ccc2O1` (racemic) [R927040, (±)-N2-[2,3-Dihydro-(N-methylamino)carbonylbenzofuran-5-yl]-5-fluoro-N4-(3-trifluoromethoxyphenyl)-2,4-pyrimidinediamine] is > 10 µM; for “N4-(3,4-Ethylenedioxyphenyl)-5-fluoro-N2-[3-(2-N-methylaminoethyl)phenyl]-2,4-pyrimidinediamine Hydrogen Chloride Salt [R926509]” it is > 10 µM. In the case of `CN(CCO)C(=O)c1cc2cc(Nc3ncc(F)c(Nc4cccc(O)c4)n3)ccc2o1` [R926725, 5-Fluoro-N4-(3-hydroxyphenyl)-N2-[2-(N-methyl-N-2-hydroxyethyl)carbonylbenzofuran-5-yl)-2,4-pyrimidinediamine] it was > 10 µM; in that of `CNC(=O)COc1cccc(Nc2ncc(F)c(Nc3cccc([N+](=O)[O-])c3)n2)c1` [R950261, N4-(3-Nitrophenyl)-5-fluoro-N2-[3-(N-methylamino)carbonylmethyleneoxyphenyl]-2,4-pyrimidinediamine], > 10 µM. Consider `Cn1ncc2cc(Nc3ncc(F)c(Nc4ccc5c(c4)OC(F)(F)O5)n3)ccc21` [R935357, N4-(3,4-Difluoromethylendioxyphenyl)-5-fluoro-N2-(1-methylindazoline-5-yl)-2,4-pyrimidinediamine], for which the IC50 was > 10 µM. For `CCOC(=O)CCn1ncc2ccc(Nc3nc(Nc4cccc(O)c4)ncc3F)cc21` [R935292, N4-[1-(2-Ethoxycarbonylethyl)indazoline-6-yl]-5-fluoro-N2-(3-hydroxyphenyl)-2,4-pyrimidinediamine], the IC50 is > 10 µM.

On to `CNC(=O)COc1cccc(Nc2ncc(F)c(Nc3cccc(NCCO)c3)n2)c1` [R950265, N4-(3-N-Hydroxyethylaminophenyl)-5-fluoro-N2-[3-(N-methylamino)carbonylmethyleneoxyphenyl]-2,4-pyrimidinediamine], for which the IC50 is > 10 µM. As to `OCCNc1cccc(Nc2ncc(F)c(Nc3cccc(NCCO)c3)n2)c1` [R950181, N2,N4-Bis(3-hydroxyethyleneaminophenyl)-5-fluoro-2,4-pyrimidinediamine], the IC50 was > 10 µM. The figure for `Cc1noc(COc2ccc(Nc3nc(Nc4ccc5c(c4)OCCO5)ncc3F)cc2)n1` [R935145, N2-(3,4-Ethylenedioxyphenyl)-5-fluoro-N4-[4-(3-methyl-1,2,4-oxadiazol-5-yl)methyleneoxyphenyl]-2,4-pyrimidinediamine] is > 10 µM.

For the origin of these results see patent publication US9499493B2, “2,4-pyrimidinediamine compounds and their uses” (Rigel Pharmaceuticals, Inc., priority 2002, dated 2016).
